Experimental data published in patent US20240165244A1 (Prelude Therapeutics Incorporated, priority 2022, published 2024).

Experiments:
SMARCA2 = target: T1, SMARCA2 (Homo sapiens, UniProt P51531); test: SMARCA2 HiBiT degradation assay in HeLa cells; type: cell-based; conditions: 18 hours, highest concentration 10 μM
T1 construct: SMARCA2-HiBiT knock-in Hela monoclonal cell (CS302366); host or cells: HeLa monoclonal cells with heterozygous HiBiT knock-in at the endogenous SMARCA2 locus
Protocol: (§1) SMARCA2 HiBiT and SMARCA4 HiBiT Degradation Assay
HiBiT peptide knock-in of SMARCA2 in LgBiT expressing HEK293T cells was performed by CRISPR-mediated tagging system as described Promega. The homozygous HiBiT knock-in on c-terminus SMARCA2 was confirmed by sanger sequence. SMARCA2-HiBiT knock-in Hela monoclonal cell (CS302366) and SMARCA4-HiBiT knock-in Hela monoclonal cell (CS3023226) were purchased from Promega. The heterozygous HiBiT-knock-in was confirmed by sanger sequence in both SMARCA2-HiBiT and SMARCA4-HiBiT monoclonal cells.
(§2) SMARCA2 HiBiT and SMARCA4 HiBiT Degradation Assay in HeLa Cells
Dispense 10 ul aliquot of prepared Hela-SMARCA2-HiBiT or Hela-SMARCA4-HiBiT cells (1:1 ratio of cells:Trypan Blue (#1450013, Bio-Rad)) onto cell counting slide (#145-0011, Bio-Rad) and obtain cell density and cell viability using cell counter (TC20, Bio-Rad). Remove appropriate volume of resuspended cells from culture flask to accommodate 2500 cells/well @ 20 μL/well. Transfer Hela-HiBiT cells to 50 mL conical (#430290, Corning). Spin down at 1000 rpm for 5 min using tabletop centrifuge (SPINCHRON 15, Beckman). Discard supernatant and resuspend cell pellet in modified EMEM (#30-2003, ATCC) cell culture media containing 10% FBS (F2422-500ML, Sigma), and 1× Penicillin/Streptomycin ([…]) (30-002-CI, Corning) to a cell density of 125,000 cells/mL. Dispense 20 μLof resuspended Hela-HiBit cells per well in 384-well TC treated plate (#12-565-343, Thermo Scientific) using standard cassette (#50950372, Thermo Scientific) on Multidrop Combi (#5840310, Thermo Scientific) inside laminar flow cabinet.
Compounds were dissolved in DMSO to make 10 mM stock and 3-fold series dilutions were further conducted keeping the highest concentration 10 μM. Dispense test compounds onto plates using digital liquid dispenser (D300E, Tecan). Incubate plates in humidified tissue culture incubator @37° C. for 18 hours. Add 20 μL of prepared Nano-Glo® HiBiT Lytic detection buffer (N3050, Promega) to each well of 384-well plate using small tube cassette (#24073295, Thermo Scientific) on Multidrop Combi, incubate @ RT for 30-60 min. Read plates on microplate reader (Envision 2105, PerkinElmer) using 384 well Ultra-Sensitive luminescence mode. Raw data files and compound information reports are swept into centralized data lake and deconvoluted using automated scripts designed by TetraScience, Inc. Data analysis, curve-fitting and reporting done in Dotmatics Informatics Suite using Screening Ultra module.

SMARCA4 = target: T2, SMARCA4 (Homo sapiens, UniProt P51532); test: SMARCA4 HiBiT degradation assay in HeLa cells; type: cell-based; conditions: 18 hours, highest concentration 10 μM
T2 construct: SMARCA4-HiBiT knock-in Hela monoclonal cell (CS3023226); host or cells: HeLa monoclonal cells with heterozygous HiBiT knock-in at the endogenous SMARCA4 locus
T2 sequence (P51532 whole entry): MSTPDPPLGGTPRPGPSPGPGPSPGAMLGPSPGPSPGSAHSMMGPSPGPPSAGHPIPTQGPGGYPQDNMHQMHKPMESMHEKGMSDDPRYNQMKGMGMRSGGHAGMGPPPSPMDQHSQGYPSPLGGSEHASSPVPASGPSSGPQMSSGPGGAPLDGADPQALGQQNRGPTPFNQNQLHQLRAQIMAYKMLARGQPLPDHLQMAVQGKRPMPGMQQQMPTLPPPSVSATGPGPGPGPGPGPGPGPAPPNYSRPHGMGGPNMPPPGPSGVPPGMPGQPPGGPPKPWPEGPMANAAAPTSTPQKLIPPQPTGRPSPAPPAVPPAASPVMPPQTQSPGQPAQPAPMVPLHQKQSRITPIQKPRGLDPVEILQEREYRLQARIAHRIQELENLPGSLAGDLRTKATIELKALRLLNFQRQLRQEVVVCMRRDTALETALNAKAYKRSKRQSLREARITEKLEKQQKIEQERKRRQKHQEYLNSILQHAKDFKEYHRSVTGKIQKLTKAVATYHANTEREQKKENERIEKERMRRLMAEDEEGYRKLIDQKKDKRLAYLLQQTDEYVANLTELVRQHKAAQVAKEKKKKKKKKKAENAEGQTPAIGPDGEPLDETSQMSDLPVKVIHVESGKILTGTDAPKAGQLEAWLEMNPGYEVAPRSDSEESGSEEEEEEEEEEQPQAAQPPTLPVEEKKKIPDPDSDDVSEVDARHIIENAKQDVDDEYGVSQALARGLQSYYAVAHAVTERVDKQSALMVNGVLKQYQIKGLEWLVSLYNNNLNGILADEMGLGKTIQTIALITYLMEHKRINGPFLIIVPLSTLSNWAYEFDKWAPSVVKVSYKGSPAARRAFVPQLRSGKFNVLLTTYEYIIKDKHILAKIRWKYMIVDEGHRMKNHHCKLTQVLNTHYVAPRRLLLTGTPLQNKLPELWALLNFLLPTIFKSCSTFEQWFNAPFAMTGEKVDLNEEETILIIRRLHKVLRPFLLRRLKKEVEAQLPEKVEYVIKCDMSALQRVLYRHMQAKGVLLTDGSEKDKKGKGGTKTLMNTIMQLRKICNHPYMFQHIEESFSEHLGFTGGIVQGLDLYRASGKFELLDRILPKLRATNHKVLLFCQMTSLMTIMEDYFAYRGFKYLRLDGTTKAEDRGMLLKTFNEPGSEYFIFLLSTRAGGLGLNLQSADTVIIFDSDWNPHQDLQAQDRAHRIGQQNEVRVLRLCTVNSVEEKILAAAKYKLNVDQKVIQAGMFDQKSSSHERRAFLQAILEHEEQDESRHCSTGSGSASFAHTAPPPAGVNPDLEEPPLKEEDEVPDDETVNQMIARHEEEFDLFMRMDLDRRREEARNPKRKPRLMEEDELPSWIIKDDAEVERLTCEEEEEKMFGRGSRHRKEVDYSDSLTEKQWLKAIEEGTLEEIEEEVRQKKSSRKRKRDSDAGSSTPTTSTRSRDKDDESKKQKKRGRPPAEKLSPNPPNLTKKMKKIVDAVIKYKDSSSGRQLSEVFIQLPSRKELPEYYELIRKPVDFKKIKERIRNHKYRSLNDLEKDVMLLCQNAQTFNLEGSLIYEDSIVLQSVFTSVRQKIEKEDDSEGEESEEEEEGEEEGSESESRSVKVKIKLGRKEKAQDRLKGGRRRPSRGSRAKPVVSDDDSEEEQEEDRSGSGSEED
Protocol: as §1
HiBiT peptide knock-in of SMARCA2 in LgBiT expressing HEK293T cells was performed by CRISPR-mediated tagging system as described Promega. […] SMARCA2-HiBiT knock-in Hela monoclonal cell (CS302366) and SMARCA4-HiBiT knock-in Hela monoclonal cell (CS3023226) were purchased from Promega.
as §2
Remove appropriate volume of resuspended cells from culture flask to accommodate 2500 cells/well @ 20 μL/well. […] Spin down at 1000 rpm for 5 min using tabletop centrifuge (SPINCHRON 15, Beckman).
Dispense test compounds onto plates using digital liquid dispenser (D300E, Tecan). Incubate plates in humidified tissue culture incubator @37° C. for 18 hours. […] Raw data files and compound information reports are swept into centralized data lake and deconvoluted using automated scripts designed by TetraScience, Inc. Data analysis, curve-fitting and reporting done in Dotmatics Informatics Suite using Screening Ultra module.

T1 sequence (P51531 whole entry): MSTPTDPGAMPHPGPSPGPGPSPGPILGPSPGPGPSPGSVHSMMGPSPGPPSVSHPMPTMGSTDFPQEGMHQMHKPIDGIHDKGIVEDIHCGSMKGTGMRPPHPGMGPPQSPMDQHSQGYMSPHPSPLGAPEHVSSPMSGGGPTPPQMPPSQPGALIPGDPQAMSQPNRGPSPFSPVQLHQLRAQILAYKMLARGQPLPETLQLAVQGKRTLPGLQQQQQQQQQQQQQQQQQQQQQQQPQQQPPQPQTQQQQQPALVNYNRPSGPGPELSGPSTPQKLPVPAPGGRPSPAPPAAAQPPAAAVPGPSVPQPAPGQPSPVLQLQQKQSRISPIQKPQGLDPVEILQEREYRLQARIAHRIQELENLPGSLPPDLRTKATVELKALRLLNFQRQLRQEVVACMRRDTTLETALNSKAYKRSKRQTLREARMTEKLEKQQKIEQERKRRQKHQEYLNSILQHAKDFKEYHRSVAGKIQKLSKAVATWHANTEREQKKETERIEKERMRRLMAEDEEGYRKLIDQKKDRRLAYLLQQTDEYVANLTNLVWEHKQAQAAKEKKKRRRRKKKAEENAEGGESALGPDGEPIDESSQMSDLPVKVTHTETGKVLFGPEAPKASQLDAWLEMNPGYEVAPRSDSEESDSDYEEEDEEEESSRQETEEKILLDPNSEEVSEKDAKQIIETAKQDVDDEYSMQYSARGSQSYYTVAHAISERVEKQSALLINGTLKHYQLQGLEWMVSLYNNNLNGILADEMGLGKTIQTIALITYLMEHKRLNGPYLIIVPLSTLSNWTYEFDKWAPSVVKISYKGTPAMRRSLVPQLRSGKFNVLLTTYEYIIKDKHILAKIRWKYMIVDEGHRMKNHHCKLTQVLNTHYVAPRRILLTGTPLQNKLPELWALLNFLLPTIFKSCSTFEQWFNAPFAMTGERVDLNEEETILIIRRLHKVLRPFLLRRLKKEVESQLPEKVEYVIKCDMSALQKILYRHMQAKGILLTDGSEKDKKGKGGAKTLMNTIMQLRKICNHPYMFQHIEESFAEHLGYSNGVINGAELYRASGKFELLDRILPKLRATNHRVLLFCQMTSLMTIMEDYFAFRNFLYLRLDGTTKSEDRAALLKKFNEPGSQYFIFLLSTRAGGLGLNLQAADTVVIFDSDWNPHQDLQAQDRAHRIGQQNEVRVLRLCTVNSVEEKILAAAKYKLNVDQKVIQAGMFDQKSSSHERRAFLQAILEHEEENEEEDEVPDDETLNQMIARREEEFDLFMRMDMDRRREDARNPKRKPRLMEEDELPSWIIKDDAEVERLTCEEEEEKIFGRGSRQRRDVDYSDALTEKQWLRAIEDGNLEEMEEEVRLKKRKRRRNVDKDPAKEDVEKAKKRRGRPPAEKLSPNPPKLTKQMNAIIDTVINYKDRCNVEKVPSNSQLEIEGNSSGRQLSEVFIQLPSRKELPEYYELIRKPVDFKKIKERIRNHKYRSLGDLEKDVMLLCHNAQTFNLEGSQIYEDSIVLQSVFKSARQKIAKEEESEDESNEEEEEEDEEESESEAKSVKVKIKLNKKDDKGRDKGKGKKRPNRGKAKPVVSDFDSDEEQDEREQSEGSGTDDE

| Compound | DC50 (SMARCA2) | Dmax (SMARCA2) | DC50 (SMARCA4) | Dmax (SMARCA4) |
| --- | --- | --- | --- | --- |
| O=C1CCC(N2Cc3ccc(N4CCN(Cc5ccc(O[C@@H]6C[C@@H]7CNc8nnc(-c9cc(F)cc(F)c9O)cc8N7C6)cc5)CC4)cc3C2=O)C(=O)N1 (stereo partly drawn) [Example 1, 3-(6-(4-(4-(((6aR,8R)-2-(3,5-difluoro-2-hydroxyphenyl)-5,6,6a,7,8,9-hexa-hydropyrrolo[1′,2′:4,5]pyrazino[2,3-c]pyridazin-8-yl)oxy)benzyl)piperazin-1-yl)-1-oxoisoindolin-2-yl)piperidine-2,6-dione] | < 100 nM | > 75% | < 100 nM | > 75% |
| Cc1cc(CN2CCN(c3ccc4c(c3)C(=O)N(C3CCC(=O)NC3=O)C4)CC2)ccc1O[C@@H]1C[C@@H]2CNc3nnc(-c4cc(F)cc(F)c4O)cc3N2C1 (stereo partly drawn) [Example 2, 3-(6-(4-(4-(((6aR,8R)-2-(3,5-difluoro-2-hydroxyphenyl)-5,6,6a,7,8,9-hexahydropyrrolo[1′,2′:4,5]pyrazino[2,3-c]pyridazin-8-yl)oxy)-3-methylbenzyl)piperazin-1-yl)-1-oxoisoindolin-2-yl)piperidine-2,6-dione] | < 100 nM | > 75% | < 100 nM | > 75% |
| O=C1CCC(N2Cc3ccc(N4CCN(Cc5ccc(O[C@@H]6C[C@@H]7CNc8nnc(-c9cc(F)cc(F)c9O)cc8N7C6)c(F)c5)CC4)cc3C2=O)C(=O)N1 (stereo partly drawn) [Example 4, 3-(6-(4-(4-(((6aR,8R)-2-(3,5-difluoro-2-hydroxyphenyl)-5,6,6a,7,8,9-hexahydropyrrolo[1′,2′:4,5]pyrazino[2,3-c]pyridazin-8-yl)oxy)-3-fluorobenzyl)piperazin-1-yl)-1-oxoisoindolin-2-yl)piperidine-2,6-dione] | < 100 nM | > 75% | < 100 nM | > 75% |
| Cc1cc(O[C@@H]2C[C@@H]3CNc4nnc(-c5cc(F)cc(F)c5O)cc4N3C2)ccc1CN1CCN(c2ccc3c(c2)C(=O)N(C2CCC(=O)NC2=O)C3)CC1 (stereo partly drawn) [Example 7, 3-(6-(4-(4-(((6aR,8R)-2-(3,5-difluoro-2-hydroxyphenyl)-5,6,6a,7,8,9-hexahydropyrrolo[1′,2′:4,5]pyrazino[2,3-c]pyridazin-8-yl)oxy)-2-methylbenzyl)piperazin-1-yl)-1-oxoisoindolin-2-yl)piperidine-2,6-dione] | < 100 nM | > 75% | < 100 nM | 50 to 75% |
| O=C1CCC(N2Cc3ccc(N4CCN(Cc5ccc(O[C@@H]6C[C@@H]7CNc8nnc(-c9cccc(Cl)c9O)cc8N7C6)cc5)CC4)cc3C2=O)C(=O)N1 (stereo partly drawn) [Example 8, 3-(6-(4-(4-(((6aR,8R)-2-(3-chloro-2-hydroxyphenyl)-5,6,6a,7,8,9-hexahydropyrrolo[1′,2′:4,5]pyrazino[2,3-c]pyridazin-8-yl)oxy)benzyl)piperazin-1-yl)-1-oxoisoindolin-2-yl)piperidine-2,6-dione] | < 100 nM | > 75% | < 100 nM | > 75% |

Second part, the compound after the results:

| DC50 (SMARCA2) | Dmax (SMARCA2) | DC50 (SMARCA4) | Dmax (SMARCA4) | Compound |
| --- | --- | --- | --- | --- |
| < 100 nM | > 75% | < 100 nM | 50 to 75% | O=C1CCC(N2Cc3ccc(N4CCN(Cc5ccc(O[C@@H]6C[C@@H]7CNc8nnc(-c9cc(F)cc(F)c9O)cc8N7C6)cn5)CC4)cc3C2=O)C(=O)N1 (stereo partly drawn) [Example 3, 3-(6-(4-((5-(((6aR,8R)-2-(3,5-difluoro-2-hydroxyphenyl)-5,6,6a,7,8,9-hexahydropyrrolo[1′,2′:4,5]pyrazino[2,3-c]pyridazin-8-yl)oxy)pyridin-2-yl)methyl)piperazin-1-yl)-1-oxoisoindolin-2-yl)piperidine-2,6-dione] |
| < 100 nM | > 75% | < 100 nM | > 75% | O=C1CCC(N2Cc3ccc(N4CCN(Cc5ccc(O[C@@H]6C[C@@H]7CNc8nnc(-c9cccc(F)c9O)cc8N7C6)cc5)CC4)cc3C2=O)C(=O)N1 (stereo partly drawn) [Example 5, 3-(6-(4-(4-(((6aR,8R)-2-(3-fluoro-2-hydroxyphenyl)-5,6,6a,7,8,9-hexahydropyrrolo[1′,2′:4,5]pyrazino[2,3-c]pyridazin-8-yl)oxy)benzyl)piperazin-1-yl)-1-oxoisoindolin-2-yl)piperidine-2,6-dione] |
| < 100 nM | > 75% | < 100 nM | > 75% | O=C1CCC(N2Cc3ccc(N4CCN(Cc5ccc(O[C@@H]6C[C@@H]7CNc8nnc(-c9cc(F)cc(F)c9O)cc8N7C6)c(Cl)c5)CC4)cc3C2=O)C(=O)N1 (stereo partly drawn) [Example 6, 3-(6-(4-(3-chloro-4-(((6aR,8R)-2-(3,5-difluoro-2-hydroxyphenyl)-5,6,6a,7,8,9-hexahydropyrrolo[1′,2′:4,5]pyrazino[2,3-c]pyridazin-8-yl)oxy)benzyl)piperazin-1-yl)-1-oxoisoindolin-2-yl)piperidine-2,6-dione] |
| < 100 nM | > 75% | < 100 nM | 50 to 75% | Cc1cc(O[C@@H]2C[C@@H]3CNc4nnc(-c5cc(F)cc(F)c5O)cc4N3C2)c(C)cc1CN1CCN(c2ccc3c(c2)C(=O)N(C2CCC(=O)NC2=O)C3)CC1 (stereo partly drawn) [Example 9, 3-(6-(4-(4-(((6aR,8R)-2-(3,5-difluoro-2-hydroxyphenyl)-5,6,6a,7,8,9-hexahydropyrrolo[1′,2′:4,5]pyrazino[2,3-c]pyridazin-8-yl)oxy)-2,5-dimethylbenzyl)piperazin-1-yl)-1-oxoisoindolin-2-yl)piperidine-2,6-dione] |
| < 100 nM | > 75% | > 1000 nM | 50 to 75% | Cc1cc(O[C@@H]2C[C@@H]3CNc4nnc(-c5cccc(Cl)c5O)cc4N3C2)ccc1CN1CCN(c2ccc3c(c2)C(=O)N(C2CCC(=O)NC2=O)C3)CC1 (stereo partly drawn) [Example 10, 3-(6-(4-(4-(((6aR,8R)-2-(3-chloro-2-hydroxyphenyl)-5,6,6a,7,8,9-hexahydropyrrolo[1′,2′:4,5]pyrazino[2,3-c]pyridazin-8-yl)oxy)-2-methylbenzyl)piperazin-1-yl)-1-oxoisoindolin-2-yl)piperidine-2,6-dione] |
| < 100 nM | > 75% | < 100 nM | 50 to 75% | Cc1cc(O[C@@H]2C[C@@H]3CNc4nnc(-c5cccc(F)c5O)cc4N3C2)ccc1CN1CCN(c2ccc3c(c2)C(=O)N(C2CCC(=O)NC2=O)C3)CC1 (stereo partly drawn) [Example 11, 3-(6-(4-(4-(((6aR,8R)-2-(3-fluoro-2-hydroxyphenyl)-5,6,6a,7,8,9-hexahydropyrrolo[1′,2′:4,5]pyrazino[2,3-c]pyridazin-8-yl)oxy)-2-methylbenzyl)piperazin-1-yl)-1-oxoisoindolin-2-yl)piperidine-2,6-dione] |
| < 100 nM | > 75% | < 100 nM | > 75% | COc1cc(O[C@@H]2C[C@@H]3CNc4nnc(-c5cc(F)cc(F)c5O)cc4N3C2)ccc1CN1CCN(c2ccc3c(c2)C(=O)N(C2CCC(=O)NC2=O)C3)CC1 (stereo partly drawn) [Example 12, 3-(6-(4-(4-(((6aR,8R)-2-(3,5-difluoro-2-hydroxyphenyl)-5,6,6a,7,8,9-hexahydropyrrolo[1′,2′:4,5]pyrazino[2,3-c]pyridazin-8-yl)oxy)-2-methoxybenzyl)piperazin-1-yl)-1-oxoisoindolin-2-yl)piperidine-2,6-dione] |
